For 4 compounds, MIC results are on record in patent US7435805B2, “O-alkyl macrolide and azalide derivatives and regioselective process for their preparation” (GlaxpSmithkline Istrazivacki, priority 2003, dated 2008).

Values after ≈ are worked out from the molar mass of the structure shown.

For test [1], the system named is S. pyogenes B0545 M. The test is described as follows: microtiter broth serial dilution MIC, S. pyogenes B0545 M. Type of test: cell-based, Streptococcus pyogenes. The note with it: S. pyogenes B0545 M (efflux resistant strain); unit assumed. An excerpt: (§1) In particular, the compounds of the invention may be active against strains of Staphylococcus aureus, Streptococcus pneumoniae, Moraxella catarrhalis, Streptococcus pyogenes, or Haemophilus influenzae. […] (Table 1.)

Test [2] relates to S. pneumoniae B0326 M. The test is described as follows: microtiter broth serial dilution MIC, S. pneumoniae B0326 M. Type of test: cell-based, Streptococcus pneumoniae. The note with it: unit assumed.
Source text: as §1

Test [3] has as its system S. pyogenes B0542. The test is described as follows: microtiter broth serial dilution MIC, S. pyogenes B0542. Type of test: cell-based, Streptococcus pyogenes. The note with it: unit assumed.
Source text: as §1

Test [4] deals with M. catarrhalis B0324. The test is described as follows: microtiter broth serial dilution MIC, M. catarrhalis B0324. Conditions: unit assumed. The format is cell-based, Moraxella catarrhalis.
Source text: as §1

For test [5], the system named is S. pneumoniae B0541. The test is described as follows: microtiter broth serial dilution MIC, S. pneumoniae B0541. Type of test: cell-based, Streptococcus pneumoniae. Conditions: unit assumed.
Source text: as §1

For test [6], the system named is H. influenzae B0529. The test is described as follows: microtiter broth serial dilution MIC, H. influenzae B0529. The format is cell-based, Haemophilus influenzae. Conditions: unit assumed.
Source text: as §1

The subject of test [7] is S. aureus B0329. The test is described as follows: microtiter broth serial dilution MIC, S. aureus B0329. Conditions: unit assumed. The format is cell-based, Staphylococcus aureus.
Source text: as §1

Test [8] has as its system E. coli B0001. The test is described as follows: microtiter broth serial dilution MIC, E. coli B0001. The format is cell-based. The note with it: unit assumed.
Source text: as §1

Test [9] deals with S. pyogenes B0543 iMLS. The test is described as follows: microtiter broth serial dilution MIC, S. pyogenes B0543 iMLS. Type of test: cell-based, Streptococcus pyogenes. Conditions: S. pyogenes B0543 iMLS (inducible resistant strain); unit assumed.
Source text: as §1

Turning to `CC[C@H]1OC(=O)[C@H](C)[C@@H](O[C@H]2C[C@@](C)(OC)[C@@H](O)[C@H](C)O2)[C@H](C)[C@@H](O[C@@H]2O[C@H](C)C[C@H](N(C)C)[C@H]2O)[C@](C)(O)C[C@@H](C)CN[C@H](C)[C@@H](OC)[C@]1(C)O` [Ex. 3, 11-O-METHYL-9-DEOZO-9A-AZA-9A-HOMOERYTHROMYCIN], the MIC in [1] was 4 µg/mL (≈ 5.34 µM); in test [2], 8 µg/mL (≈ 10.7 µM); in test [3] it was 0.125 µg/mL (≈ 0.167 µM); in test [4], 0.125 µg/mL (≈ 0.167 µM); in [5], 0.125 µg/mL (≈ 0.167 µM); in [6], 0.5 µg/mL (≈ 0.668 µM). Further, the MIC in test [7] was found to be 1 µg/mL (≈ 1.34 µM); in test [8], 2 µg/mL (≈ 2.67 µM); in test [9], 16 µg/mL (≈ 21.4 µM).
In the case of 8a-Aza-8a-homoerythromycin, the MIC in [1] was found to be 32 µg/mL; in [2], 64 µg/mL; in [3], 0.25 µg/mL; in [4], 2 µg/mL; in [5] it was 0.125 µg/mL; in test [6], 1 µg/mL. Also, the MIC in test [7] is 2 µg/mL; in [8], 16 µg/mL; in test [9] it was 8 µg/mL.
With `CC[C@H]1OC(=O)[C@H](C)[C@@H](O[C@H]2C[C@@](C)(OC)[C@@H](O)[C@H](C)O2)[C@H](C)[C@@H](O[C@@H]2O[C@H](C)C[C@H](N(C)C)[C@H]2O)[C@](C)(O)C[C@@H](C)NC(=O)[C@H](C)[C@@H](OC)[C@]1(C)O` [Ex. 5, 11-O-METHYL-8A-AZA-8A-HOMOERYTHROMYCIN], the MIC in test [1] came to 16 µg/mL (≈ 21 µM); in test [2] it was 32 µg/mL (≈ 41.9 µM); in test [3], 0.125 µg/mL (≈ 0.164 µM); in test [4], 0.125 µg/mL (≈ 0.164 µM); in test [5], 0.125 µg/mL (≈ 0.164 µM); in [6] it was 1 µg/mL (≈ 1.31 µM). The MIC in test [7] is 0.5 µg/mL (≈ 0.655 µM); in test [8], 16 µg/mL (≈ 21 µM); in [9] it was 4 µg/mL (≈ 5.24 µM).
`CC[C@H]1OC(=O)[C@H](C)[C@@H](O[C@H]2C[C@@](C)(OC)[C@@H](O)[C@H](C)O2)[C@H](C)[C@@H](O[C@@H]2O[C@H](C)C[C@H](N(C)C)[C@H]2O)[C@](C)(O)C[C@@H](C)CN[C@H](C)[C@@H](O)[C@]1(C)O` [9-Deoxo-9a-aza-9a-homoerythromycin]: the MIC in test [1] is 16 µg/mL (≈ 21.8 µM); in [2], 16 µg/mL (≈ 21.8 µM); in test [3] it was 0.125 µg/mL (≈ 0.17 µM); in test [4], 1 µg/mL (≈ 1.36 µM); in [5] it was 0.25 µg/mL (≈ 0.34 µM); in test [6] it was 0.5 µg/mL (≈ 0.68 µM). Moreover, the MIC worked out at 4 µg/mL (≈ 5.44 µM) in test [7], 4 µg/mL (≈ 5.44 µM) in test [8] and 32 µg/mL (≈ 43.5 µM) in test [9].
